≈ marks a conversion by molar mass, not a printed value.
Columns and labels:
Type in all cases: cell-based
Porphyromonas gingivalis [1] = assay: MIC study, 96 well microtiter plate serial dilution; details: P. gingivalis, 37° C., 48 hours, turbidity at 660 nm, read-out: MIC (minimum inhibitory concentration)
Method: (§1) In vitro tests were conducted with a gram positive supragingival plaque bacterium, Streptococcus mutans. In addition, two subgingival plaque bacteria associated with oral malodor were tested, Porphyromonas gingivalis and Fusobacterium nucleatum. The MIC (Minimum Inhibitory Concentrations) study protocol is as follows. Chlorhexidine was used as a positive control and sterile water was used as a negative control. Salicylaldehyde was suspended in 10% methanol with 3.8% Tween 80. […] 96 well microtiter plates were used for this study. Each well contained […] of bacteria, serially diluted agents and bacterial growth medium. All bacterial cultures were incubated at 37° C. and stationary. Bacterial growth was estimated spectrophotometrically at 660 nm, after 48 hours. The MIC for each test bacteria was defined as the minimum concentration of test compound limiting turbidity to […].

Fusobacterium nucleatum [2] = assay: as above; details: F. nucleatum, 37° C., 48 hours, turbidity at 660 nm, read-out: MIC (minimum inhibitory concentration)
Method: as §1

Porphyromonas gingivalis [3] = assay: MBC determination, plating on blood agar; details: P. gingivalis, lowest concentration that killed at least 99.9% of initial inoculum, plates 48 hours at 37° C., read-out: MBC (minimum bactericidal concentration)
Method: (§2) The MBC (Minimum bactericidal concentrations) were determined using the 96 well microtiter plate serial dilutions as described above for MIC studies. Serial dilution of cultures in wells showing no visible growth were performed and 10 microliters of culture were plated in triplicate on blood agar plates. Viable colonies were scored after incubation of the plates for 48 hours at 37° C. For each test bacterium, the number of CFU/ml were determined in the initial inoculum. The MBC was defined as the lowest concentration of a test compound that killed at least 99.9% of the cells present in the initial inoculum.

Fusobacterium nucleatum [4] = assay: MBC determination, plating on blood agar; details: F. nucleatum, lowest concentration that killed at least 99.9% of initial inoculum, plates 48 hours at 37° C., read-out: MBC (minimum bactericidal concentration)
Method: as §2

Streptococcus mutans = assay: MIC study, 96 well microtiter plate serial dilution
Method: as §1

Row | MIC (Porphyromonas gingivalis [1]) [µg/mL] | MIC (Fusobacterium nucleatum [2]) [µg/mL] | MIC (Streptococcus mutans; Streptococcus mutans, S. mutans, 37° C., 48 hours, turbidity at 660 nm, read-out: MIC (minimum inhibitory concentration)) [µg/mL] | Structure (SMILES) | MBC (Porphyromonas gingivalis [3]) [µg/mL] | MBC (Fusobacterium nucleatum [4]) [µg/mL] | effectiveness against S. mutans (in words) (Streptococcus mutans)
1 | 1.25 (≈ 2.47 µM) | 1.25 (≈ 2.47 µM) | – | [H]/N=C(\N/C(=N/[H])NCCCCCCNC(=N)NC(=N)Nc1ccc(Cl)cc1)Nc1ccc(Cl)cc1 [Cholorhexidine, Chlorhexidine, reference compound] | 1.25 (≈ 2.47 µM) | 1.25 (≈ 2.47 µM) | –
2 | 125 (≈ 1020 µM) | 7.8 (≈ 63.9 µM) | 1000 (≈ 8190 µM) | O=Cc1ccccc1O [salicylaldehyde] | 250 (≈ 2050 µM) | 15.6 (≈ 128 µM) | not exceptionally effective

From patent US20040258733A1, “Breath Freshening and Oral Cleansing Product Using Salicylaldehyde” (priority 2002, published 2004)
